In the experiment the target is T1, HDAC6 enzyme (Homo sapiens, UniProt Q9UBN7).
T1 construct: transducing full length HDAC6 gene into Sf-9 insect cells; GST; purchased SignalChem; host or cells: Sf-9 insect cells
T1 sequence (Q9UBN7 1-1215): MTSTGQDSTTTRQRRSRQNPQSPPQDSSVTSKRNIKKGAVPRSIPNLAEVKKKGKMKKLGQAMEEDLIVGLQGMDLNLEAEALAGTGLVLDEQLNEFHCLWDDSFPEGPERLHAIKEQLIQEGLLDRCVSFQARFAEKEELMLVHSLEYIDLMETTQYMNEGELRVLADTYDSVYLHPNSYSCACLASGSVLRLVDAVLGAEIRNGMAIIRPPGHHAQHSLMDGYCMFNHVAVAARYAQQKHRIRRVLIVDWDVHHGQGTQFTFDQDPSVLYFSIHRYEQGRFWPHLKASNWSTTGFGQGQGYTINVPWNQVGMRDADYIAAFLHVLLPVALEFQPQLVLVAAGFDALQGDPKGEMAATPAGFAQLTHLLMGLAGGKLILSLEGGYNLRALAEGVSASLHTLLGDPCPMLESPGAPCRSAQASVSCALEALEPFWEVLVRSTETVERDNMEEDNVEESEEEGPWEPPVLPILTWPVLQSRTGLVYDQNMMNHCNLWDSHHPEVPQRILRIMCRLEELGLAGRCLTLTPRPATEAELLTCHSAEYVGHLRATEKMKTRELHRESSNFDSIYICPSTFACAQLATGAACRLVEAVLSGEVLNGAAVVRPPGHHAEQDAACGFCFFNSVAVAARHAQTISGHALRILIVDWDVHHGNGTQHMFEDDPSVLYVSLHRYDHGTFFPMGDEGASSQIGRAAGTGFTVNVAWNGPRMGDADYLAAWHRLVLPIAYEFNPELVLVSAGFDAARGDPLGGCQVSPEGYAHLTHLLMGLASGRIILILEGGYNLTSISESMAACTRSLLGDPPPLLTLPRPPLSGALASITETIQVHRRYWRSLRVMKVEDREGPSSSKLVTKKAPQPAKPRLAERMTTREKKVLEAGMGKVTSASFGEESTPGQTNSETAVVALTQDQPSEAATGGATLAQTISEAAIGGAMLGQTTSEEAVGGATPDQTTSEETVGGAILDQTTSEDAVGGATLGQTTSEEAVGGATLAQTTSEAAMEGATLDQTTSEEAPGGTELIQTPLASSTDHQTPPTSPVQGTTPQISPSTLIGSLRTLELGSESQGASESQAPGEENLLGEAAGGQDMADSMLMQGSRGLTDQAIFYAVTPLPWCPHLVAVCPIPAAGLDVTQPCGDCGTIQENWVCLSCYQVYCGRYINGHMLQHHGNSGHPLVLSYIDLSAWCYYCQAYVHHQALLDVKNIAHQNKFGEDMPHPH
Put plainly: HDAC6 enzyme inhibitory activity (HDAC-Glo I/II Assay kit). Type of experiment: biochemical. Particulars: 10 μM; wells without enzyme = 100% inhibition; read-out: HDAC6 inhibitory rate (%) (10 μM). In a few lines:
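Inhibition is calculated as relative activity, taking luminescence in enzyme-free wells as complete inhibition. The enzyme, full-length and GST-purified after Sf-9 expression, was exposed to compound for 60 min at room temperature before a 20 min HDAC-Glo reaction.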
Turning to `O=C1c2cc(-c3nnc(C(F)F)o3)ccc2CN1[C@@H]1CCCC[C@H]1NCC(F)(F)F` [Example 257, 6-(5-(difluoromethyl)-1,3,4-oxadiazol-2-yl)-2-((1R,2R)-2-((2,2,2-trifluoroethyl)amino)-cyclohexyl)isoindolin-1-one], the inhibition at 10 µM worked out at 101%.

As for `CC(F)(F)C(=O)N[C@H]1CCCC[C@H]1N1Cc2ccc(-c3nnc(C(F)F)o3)cc2C1=O` [Example 258, N-((1S,2R)-2-(6-(5-(difluoro-methyl)-1,3,4-oxadiazol-2-yl)-1-oxo-1,3-dihydro-2H-isoindol-2-yl)cyclohexyl)-2,2-difluoro-propanamide], the inhibition at 10 µM was 101%.

For the compound `O=C1c2cc(-c3nnc(C(F)F)o3)ccc2CN1[C@@H]1CCCC[C@@H]1NC(=O)C1(C(F)(F)F)CC1` [Example 259, N-((1S,2R)-2-(6-(5-(difluoro-methyl)-1,3,4-oxadiazol-2-yl)-1-oxo-1,3-dihydro-2H-isoindol-2-yl)cyclohexyl)-1-(trifluoromethyl)cyclopro-panecarboxamide], the inhibition at 10 µM came out at 101%.

For the compound `CC(C)(C(=O)N[C@H]1CCCC[C@H]1N1Cc2ccc(-c3nnc(C(F)F)o3)cc2C1=O)C(F)(F)F` [Example 260, N-((1S,2R)-2-(6-(5-(difluoro-methyl)-1,3,4-oxadiazol-2-yl)-1-oxo-1,3-dihydro-2H-isoindol-2-yl)cyclohexyl)-3,3,3-trifluoro-2,2-dimethyl-propanamide], the inhibition at 10 µM is 98%.

Regarding `O=C1c2cc(-c3nnc(C(F)F)o3)ccc2CN1[C@@H]1CCCC[C@@H]1NC(=O)C(F)(F)C(F)(F)F` [Example 261, N-((1S,2R)-2-(6-(5-(difluoro-methyl)-1,3,4-oxadiazol-2-yl)-1-oxo-1,3-dihydro-2H-isoindol-2-yl)cyclohexyl)-2,2,3,3,3-pentafluoropropan-amide], the inhibition at 10 µM was determined as 99%.

Consider `COC(=O)N[C@H]1CCCC[C@H]1N1Cc2ccc(-c3nnc(C(F)F)o3)cc2C1=O` [Example 262, methyl ((1S,2R)-2-(6-(5-(difluoromethyl)-1,3,4-oxadiazol-2-yl)-1-oxo-1,3-dihydro-2H-isoindol-2-yl)cyclohexyl)carbamate], for which the inhibition at 10 µM was 98%.

Consider `CC(C)(C)OC(=O)N1CCC[C@@H]1CN1Cc2c(F)cc(-c3nnc(C(F)F)o3)cc2C1=O` [Example 263, tert-butyl (2R)-2-((6-(5-(difluoromethyl)-1,3,4-oxadiazol-2-yl)-4-fluoro-1-oxo-1,3-dihydro-2H-isoindol-2-yl)methyl)-pyrrolidine-1-carboxylate], for which the inhibition at 10 µM was found to be 99%.

For `CC(=O)N(c1ccccn1)[C@@H]1CCCC[C@H]1N1Cc2ccc(-c3nnc(C(F)F)o3)cc2C1=O` [Example 264, N-((1R,2R)-2-(6-(5-(difluoromethyl)-1,3,4-oxadiazol-2-yl)-1-oxo-1,3-dihydro-2H-isoindol-2-yl)cyclohexyl)-N-(pyridin-2-yl) acetamide], the inhibition at 10 µM worked out at 101%.

Consider `O=C1c2cc(-c3nnc(C(F)F)o3)cc(F)c2CN1C[C@H]1COCCN1S(=O)(=O)c1cccc(F)c1` [Example 265, 6-(5-(difluoromethyl)-1,3,4-oxadiazol-2-yl)-4-fluoro-2-(((3S)-4-((3-fluorophenyl)-sulfonyl)morpholin-3-yl)-methyl)isoindolin-1-one], for which the inhibition at 10 µM is 98%.

Take `COc1cccc(CN2Cc3ncc(-c4nnc(C(F)F)o4)cc3C2=O)c1` [Example 266, 3-(5-(difluoromethyl)-1,3,4-oxadiazol-2-yl)-6-(3-methoxybenzyl)-6,7-dihydro-5H-pyrrolo[3,4-b]-pyridin-5-one]: the inhibition at 10 µM was 99%.

Regarding `N#Cc1cccc(-c2ccc(Cl)cc2N2Cc3ccc(-c4nnc(C(F)F)o4)cc3C2=O)c1` [Example 267, 4′-chloro-2′-(6-(5-(difluoro-methyl)-1,3,4-oxadiazol-2-yl)-1-oxo-1,3-dihydro-2H-isoindol-2-yl)biphenyl-3-carbonitrile], the inhibition at 10 µM was 100%.

On to `CC(C)(OC(=O)N[C@@H]1CCCC[C@H]1N1Cc2ncc(-c3nnc(C(F)F)o3)cc2C1=O)C(F)(F)F` [Example 268, 1,1,1-trifluoro-2-methylpropan-2-yl ((1R,2R)-2-(3-(5-(difluoromethyl)-1,3,4-oxadiazol-2-yl)-5-oxo-5,7-dihydro-6H-pyrrolo[3,4-b]pyridin-6-yl)cyclohexyl)carbamate], for which the inhibition at 10 µM came out at 100%.

With `O=C1CCCN1CC(c1ccccc1)N1Cc2ncc(-c3nnc(C(F)F)o3)cc2C1=O` (stereo not drawn) [Example 269, 3-(5-(difluoromethyl)-1,3,4-oxadiazol-2-yl)-6-(2-(2-oxopyrrolidin-1-yl)-1-phenylethyl)-6,7-dihydro-5H-pyrrolo[3,4-b]pyridin-5-one], the inhibition at 10 µM was determined as 99%.

In the case of `Cn1cc(-c2cc(Cl)ccc2N2Cc3ccc(-c4nnc(C(F)F)o4)cc3C2=O)cn1` [Example 270, 2-(4-chloro-2-(1-methyl-1H-pyrazol-4-yl)phenyl)-6-(5-(difluoromethyl)-1,3,4-oxadiazol-2-yl)-isoindolin-1-one], the inhibition at 10 µM was found to be 99%.

With `Cn1cc(-c2cc(F)ccc2N2Cc3ccc(-c4nnc(C(F)F)o4)cc3C2=O)cn1` [Example 271, 6-(5-(difluoromethyl)-1,3,4-oxadiazol-2-yl)-2-(4-fluoro-2-(1-methyl-1H-pyrazol-4-yl)phenyl)isoindolin-1-one], the inhibition at 10 µM turned out to be 100%.

For `COc1ccc(CN2Cc3ncc(-c4nnc(C(F)F)o4)cc3C2=O)c(OC)c1` [Example 272, 3-(5-(difluoromethyl)-1,3,4-oxadiazol-2-yl)-6-(2,4-dimethoxybenzyl)-6,7-dihydro-5H-pyrrolo-[3,4-b]pyridin-5-one], the inhibition at 10 µM is 100%.

For the compound `O=C1c2cc(-c3nnc(C(F)F)o3)cnc2CN1Cc1cccc(F)c1` [Example 273, 3-(5-(difluoromethyl)-1,3,4-oxadiazol-2-yl)-6-(3-fluorobenzyl)-6,7-dihydro-5H-pyrrolo[3,4-b]pyridin-5-one], the inhibition at 10 µM was found to be 97%.

With `O=C1c2cc(-c3nnc(C(F)F)o3)cc(F)c2CN1C[C@H]1CCCN1S(=O)(=O)C1CC1` [Example 274, 2-(((2R)-1-(cyclopropyl-sulfonyl)pyrrolidin-2-yl)methyl)-6-(5-(difluoro-methyl)-1,3,4-oxadiazol-2-yl)-4-fluoroisoindolin-1-one], the inhibition at 10 µM was determined as 99%.

With `CC(C)(C)OC(=O)N1CCC[C@H]1CN1Cc2c(F)cc(-c3nnc(C(F)F)o3)cc2C1=O` [Example 275, tert-butyl (2S)-2-((6-(5-(difluoromethyl)-1,3,4-oxadiazol-2-yl)-4-fluoro-1-oxo-1,3-dihydro-2H-isoindol-2-yl)methyl)-pyrrolidine-1-carboxylate], the inhibition at 10 µM came out at 98%.

`O=C1c2cc(-c3nnc(C(F)F)o3)ccc2CN1c1ccccc1-c1ccc(F)cc1` [Example 276, 6-(5-(difluoromethyl)-1,3,4-oxadiazol-2-yl)-2-(4′-fluorobiphenyl-2-yl)-isoindolin-1-one]: the inhibition at 10 µM came out at 98%.

Turning to `O=C1c2cc(-c3nnc(C(F)F)o3)ccc2CN1c1ccccc1-c1ccccc1F` [Example 277, 6-(5-(difluoromethyl)-1,3,4-oxadiazol-2-yl)-2-(2'-fluorobiphenyl-2-yl)isoindolin-1-one], the inhibition at 10 µM was 97%.

For the compound `O=C1c2cc(-c3nnc(C(F)F)o3)ccc2CN1c1ccccc1-c1cccc(F)c1` [Example 278, 6-(5-(difluoromethyl)-1,3,4-oxadiazol-2-yl)-2-(3′-fluorobiphenyl-2-yl)-isoindolin-1-one], the inhibition at 10 µM turned out to be 99%.

With `N#Cc1ccc(-c2ccccc2N2Cc3ccc(-c4nnc(C(F)F)o4)cc3C2=O)cc1` [Example 279, 2′-(6-(5-(difluoromethyl)-1,3,4-oxadiazol-2-yl)-1-oxo-1,3-dihydro-2H-isoindol-2-yl)-biphenyl-4-carbonitrile], the inhibition at 10 µM worked out at 89%.

Take `CCc1ncccc1-c1ccccc1N1Cc2ccc(-c3nnc(C(F)F)o3)cc2C1=O` [Example 280, 6-(5-(difluoromethyl)-1,3,4-oxadiazol-2-yl)-2-(2-(2-ethylpyridin-3-yl)phenyl)-isoindolin-1-one]: the inhibition at 10 µM came out at 99%.

The values above are taken from patent publication US10435399B2, “HDAC6 inhibitory heterocyclic compound” (TAKEDA PHARMACEUTICAL COMPANY LIMITED, priority 2017, dated 2019).
